# pIC50: −log10 of the molar value.
# How the values were obtained:
# [1] = test system: SRS-A; assay: SRS-A synthesis inhibition in rat mononuclear cells incubated with cysteine and challenged with calcium ionophore; assay type: cell-based; details: 10 micrograms/ml
# Protocol: This test is conducted in rat mononuclear cells incubated in the presence of cysteine and challenged with a calcium ionophore (which induces SRS-A formation). Among the nonamino compounds of this invention, in this test system, 1-acetoxy-2-n-butyl-4-methoxynaphthalene (Example 3) and 1-acetoxy-2,3-diethyl-4-methoxynaphthalene (Example 4) are preferred.
# [2] = test system: lipoxygenase; assay: lipoxygenase inhibition, oxygen uptake of washed human platelets with arachidonic acid; assay type: cell-based; details: for inhibition of 5-HETE production: 10 μm
# Protocol: The compounds of the present invention were also tested for lipoxygenase inhibition. Arachidonic acid is added to washed human platelets and the oxygen uptake is measured using oxygraph cells. A decrease of oxygen uptake versus the control cell indicates inhibition of lipoxygenase. For a full description of the procedure see, Wallach, et al., Biochim. Biophys. Acta. 231: 445 (1976).
# [3] = test system: mucous secretion; assay: canine tracheal mucous secretion (hillock count); assay type: in vivo, mongrel dogs
# Protocol: Mongrel dogs (weight 18-35 kg) were anesthetized with a mixture of chloralose (100 mg/kg) and urethane (500 mg/kg) via intravenous injection. The animals were secured to a surgery table, ventral side up, and the neck and inner right hind limb were shaved. A ventral midline incision was made in the neck using a Bovie CSVII electrosurgical unit, starting from the papillae (interramal) to the clavicle thus exposing the trachea. An endotracheal tube was secured into the lower trachea. The animals were then connected via the endotracheal tube to a Harvard respirator (Model 607A) that delivered room air at a constant tidal volume and frequency. Two polyethylene catheters were connected to the endotracheal tube, and one was connected to a medical gas analyzer (Beckman, Model LB-2) that continuously measured the carbon dioxide (CO2) content of the expired air for determination of end tidal CO2. The other was connected to a pressure transducer (Statham, Model PMI 131TC+2.5-350) for the measurement of airway press ure.
# A second incision made in the inner right hind limb to expose the femoral artery and vein was made for the catheterization of these large vessels. A polyethylene catheter was tied into the artery and connected to a pressure transducer (Statham, Model P231D) for the measurement of blood pressure. This catheter also allowed for samples of arterial blood to be collected for measurements of blood gas tension using a blood gas analyser (Corning, Model 175). Another polyethylene catheter was tied into the femoral vein which was used for injecting additional anesthetic and paralyzing drugs. Gallamine triethiodide (20-40 mg) was used to paralyze the respiratory muscles and a single injection of sodium bicarbonate 7.5% (0.5 mg/kg) in conjunction with a continuous i.v. drip of 5% dextrose in 0.9% saline helped to maintain fluid balance. All physiological measurements were recorded and monitored on a polygraph (Grass instruments, Model 7D). Once the femoral cutdown was completed, surgery on the neck region resumed. The carotid artery was exposed and the "knuckle" (a portion of the carotid which bisects to supply blood flow to the trachea and neck muscles) was located. A small polyethylene catheter was then inserted into the muscular branch of the cranial thyroid artery (CTA). This allowed for close arterial injection of experimental agents. The strap muscles were removed and the mucosal surface of the trachea exposed by cutting along the anterior midline of the upper two-thirds of the extrathoracic trachea and pulling the cut edges widely apart. The exposed mucosa was checked for proper canulation by blanching and appropriate adjustments of the canula into the CTA were made until blanching was achieved.
# Isometric tension measurements of the trachealis muscle were recorded by suturing a rigid, plastic bar to the (15) cartilaginous rings of the cut edges of the trachea, and connecting one side to a fixed restraint and the contralateral side to a force displacement transducer (Grass, Model FT 03C). An initial tension of 25-30 g/cm of trachea was applied to the muscle, and it was allowed to stabilize for 45 min. An initial zero tension point was determined before agonists were injected into the CTA, and the zero was readjusted after agonist injections.
# To visualize secretions coming from the submucosal gland duct openings of the trachea, powdered tantalum, an inert metal (2-5 microns in size) was sprayed on the trachea until it formed a uniform layer over the mucosal surface. The tantalum itself did nothing to normal secretion, but prevented the normal ciliary dispersion of secretions from the gland duct openings; these secretions, therefore, caused elevations ("hillocks") in the tantalum layer. The number of hillocks formed in a 1.2 cm^2 field, 1-2 cm from the larynx, were counted and their images were recorded with a video camera (Hitachi CCTV, Model HV-17TU) mounted on a dissecting microscrope (Zeiss Ompi-1) with a beam splitter. […]
# [4] = test system: deep vein thrombosis; assay: deep vein thrombosis: jugular vein stasis in cats, scanning electron microscopy; assay type: in vivo, domestic short hair cats
# Protocol: Nine adult domestic short hair cats weighing 4.5-5 kg were anesthetized with sodium pentabarbital (25-30 mg/kg i.v.). The neck area was prepared for a sterile cut down procedure and the jugular veins were exposed. After exposure of the veins each animal was injected with epsilon amino caproic acid (eaca) to inhibit plasminogen activation (2.5 grams i.v. in Tyrode's solution). […] Six of the cats were also treated with 2,3-diethyl-4-methoxy-1-naphthalenol, acetate. Three of the cats were given 1 mg/kg i.v. and 3 of the cats were treated with 5 mg/kg i.v. prior to venous occlusion. The jugular veins were carefully dissected free of surrounding connective tissue and the vein was ligated at the thoracic inlet with 3-0 dexon. The skin incision was closed and the animals were maintained in surgical anesthesia for 2 hours. At the end of the 2 hour waiting period, the jugular veins were exposed again. A 25 gauge butterfly needle was positioned into the lumen and blood was flushed out of the vein with heparinized Tyrode's solution (1U heparin/ml). The veins were tied off and removed under physiologic pressure. The vessels were immediately immersed in a 2.5% glutaraldehyde solution prepared in Tyrode's solution for fixation. The veins were fixed overnight at 5 degrees centigrade, postfixed in 1% osmium tetroxide overnight, dehydrated in ethanol and substituted by amyl acetate. All veins were critical point dried from carbon dioxide using a Denton DCP-1 critical point drying apparatus. The veins were mounted on stubas, gold coated on a Denton DV-502 modified vacuum evaporator and examined on a Cambridge Stereoscan 150 scanning electron microscope.
# Two hours of jugular vein stasis following the trauma of dissection caused massive white cell adhesion to and migration under the venous endothelium of non-treated cats and produced sloughing of the endothelium and exposure of the basement membrane. This damage was sufficient to initiate thrombosis. Many of the exposed areas of basement membrane had adherent platelets. The platelets were adherent as monolayers or as aggregates. In some areas fibrin was found deposited on the endothelium or exposed basement membrane. Leukocytes were occasionally associated with the fibrin.
# [5] = test system: tracheal mucus velocity; details: given prior to antigen challenge, patients with a history of bronchial asthma; cited from earlier work
# [6] = test system: leukotriene synthesis; assay: inhibition of leukotriene synthesis (standard laboratory test); assay type: cell-based
# Protocol: Certain of the amino acyl compounds of this invention (when R3 is --C(O)--(CR17 R18)m --(CH2)n --NR14 R15, --C(O)--AA or --C(O)--PhX--NH2) were evaluated in a standard laboratory test to measure the inhibition of leukotriene synthesis. Four of the amino-type compounds of this invention were preferred in this test. Specifically, in this test system, L-Valine, 2,3-diethyl-4-methoxynaphth-1-yl ester, hydrochloride; L-Valine, 2-n-butyl-4-methoxynaphth-1-yl ester; L-Valine, 2-n-butyl-4-methoxynaphth-1-yl ester, hydrochloride; and L-Alanine, 2-n-butyl-4-methoxynaphth-1-yl ester were preferred.
# [7] = test system: human airways; details: in vitro; cited from earlier work
# [8] = test system: canine tracheas; details: in vivo; cited from earlier work
# [9] = 1.0 mg/kg oral, predose time 3.5 hr, n=2, ↑ indicates stimulation
# [10] = 5 mg/kg oral, predose time 3.5 hr, n=2
# [11] = 1.0%, inhalation, n=6, ***p<0.0001
compound,measurement,setting,value
"CCCCc1cc(OC)c2ccccc2c1OC(C)=O [Example 3, 2-Butyl-4-methoxy-1-naphthalenol, acetate]",inhibition at 10 µg/mL,[1],100%
same,inhibition of 5-HETE production,[2],completely inhibiting
same,pIC50,"[2]; lipoxygenase system, washed human platelets",~7.00
same,"% Inhibition of Agonist Response, Indo/AA","[3]; 0.001%, inhalation, n=4, **p<0.005",100%
same,"% Inhibition of Agonist Response, Hypoxia","[3]; 0.001%, inhalation, n=4, *p<0.05",87%
same,"% Inhibition of Agonist Response, Baseline: stimulation (.uparw.)","[3]; 0.001%, inhalation, n=4, ↑ indicates stimulation",24%
same,"% Inhibition of Agonist Response, Indo/AA","[3]; 1.0 mg/kg oral, predose time 3.5 hr, n=2",50%
same,"% Inhibition of Agonist Response, Baseline: stimulation (.uparw.)",[3]; [9],6%
same,"% Inhibition of Agonist Response, Hypoxia: stimulation (.uparw.)",[3]; [9],11%
same,"% Inhibition of Agonist Response, Indo/AA","[3]; 1.0 mg/kg oral, predose time 5.0 hr, n=2, *p<0.05",62%
same,"% Inhibition of Agonist Response, Hypoxia",[3]; [10],49%
same,"% Inhibition of Agonist Response, Indo/AA",[3]; [10],69%
same,"% Inhibition of Agonist Response, Baseline: stimulation (.uparw.)","[3]; 5 mg/kg oral, predose time 3.5 hr, n=2, ↑ indicates stimulation",30%
same,"% Inhibition of Agonist Response, Indo/AA","[3]; 5 mg/kg oral, predose time 4.5 hr, n=2",95%
same,"% Inhibition of Agonist Response, Baseline","[3]; 0.01%, inhalation, n=5",19%
same,"% Inhibition of Agonist Response, Hypoxia","[3]; 0.01%, inhalation, n=5",91%
same,"% Inhibition of Agonist Response, Indo/AA","[3]; 0.01%, inhalation, n=5, **p<0.005",100%
same,"% Inhibition of Agonist Response, Hypoxia","[3]; 10 mg/kg oral, predose time 3 hr, n=2",94%
same,"% Inhibition of Agonist Response, Indo/AA","[3]; 10 mg/kg oral, predose time 3 hr, n=2, *p<0.05",100%
same,"% Inhibition of Agonist Response, Baseline: stimulation (.uparw.)","[3]; 10 mg/kg oral, predose time 3 hr, n=2, ↑ indicates stimulation",5%
same,"% Inhibition of Agonist Response, Indo/AA","[3]; 10 mg/kg oral, predose time 4 hr, n=2, *p<0.05",100%
same,"% Inhibition of Agonist Response, Indo/AA","[3]; 10 mg/kg oral, predose time 5 hr, n=2, *p<0.05",100%
same,"% Inhibition of Agonist Response, Baseline","[3]; 0.1%, inhalation, n=4",23%
same,"% Inhibition of Agonist Response, Indo/AA","[3]; 0.1%, inhalation, n=4, **p<0.005",100%
same,"% Inhibition of Agonist Response, Hypoxia","[3]; 0.1%, inhalation, n=4, *p<0.05",96%
same,"% Inhibition of Agonist Response, Baseline","[3]; 1.0%, inhalation, n=6",6%
same,"% Inhibition of Agonist Response, Hypoxia",[3]; [11],100%
same,"% Inhibition of Agonist Response, Indo/AA",[3]; [11],100%
same,effect on baseline secretion and on enhanced mucus secretion due to hypoxia or arachidonic acid,[3]; mongrel dog model,effective in blocking baseline secretion in a dose dependent fashion as well as enhanced mucus secretion due to hypoxia or arachidonic acid administration
"CCc1c(CC)c(OC(C)=O)c2ccccc2c1OC [Example 4, 2,3-Diethyl-4-methoxy-1-naphthalenol, acetate]",inhibition at 10 µg/mL,[1],95%
same,inhibition of 5-HETE production,[2],completely inhibiting
same,areas with detached endothelial cells or exposed basement membrane,[4]; 1 mg/kg i.v.,Few areas with detached endothelial cells or exposed basement membrane
same,leukocyte adhesion or migration,[4]; 1 mg/kg i.v.,did not reduce leukocyte adhesion or migration
same,leukocyte release of hydrolytic enzymes and production of superoxides,[4]; 1 mg/kg i.v.,apparently inhibited
same,areas of adherent leukocytes,[4]; 5 mg/kg i.v.,only patchy areas of adherent leukocytes were observed
same,fibrin deposition,[4]; 5 mg/kg i.v.,Only occasional small areas of fibrin deposition
same,inhibitory effect on leukocyte mediated damage,"[4]; 5 mg/kg i.v., compared with 1 mg/kg",even greater inhibitory effect on leukocyte mediated damage
same,numbers of adhering and migrating leukocytes,"[4]; 5 mg/kg i.v., compared with control or 1 mg/kg group",appeared to be less
same,vascular surface with intact endothelial cell cover and few adherent leukocytes,"[4]; 5 mg/kg i.v., with the exception of one vein",approximately half or more of the vascular surface
same,effect on the vascular changes,[4]; 1 and 5 mg/kg i.v. prior to venous occlusion,dose dependent effect on the vascular changes
CCCc1c(OCC(O)COc2ccc3c(=O)cc(C(=O)O)oc3c2CCC)ccc(C(C)=O)c1O (stereo not drawn) [FPL 55712],reversing the tracheal mucus velocity,[5],effective in reversing the tracheal mucus velocity
"CCCCc1cc(OC)c2ccccc2c1OC(=O)[C@H](C)N [L-Alanine, 2-n-butyl-4-methoxynaphth-1-yl ester]",inhibition at 1 µg/mL,[6]; 1 microgram/ml,98%
same,inhibition of synthesis of leukotriene,[6]; 10 micrograms/ml,completely inhibited
"CCc1c(CC)c(OC(=O)[C@@H](N)C(C)C)c2ccccc2c1OC.Cl [L-Valine, 2,3-diethyl-4-methoxynaphth-1-yl ester, hydrochloride]",inhibition at 1 µg/mL,[6]; 1 microgram/ml,100%
same,inhibition of synthesis of leukotriene,[6]; 10 micrograms/ml,completely inhibited
"CCCCc1cc(OC)c2ccccc2c1OC(=O)[C@@H](N)C(C)C.Cl [L-Valine, 2-n-butyl-4-methoxynaphth-1-yl ester, hydrochloride]",inhibition of synthesis of leukotriene,[6]; 1 microgram/ml,93%
same,inhibition of synthesis of leukotriene,[6]; 10 micrograms/ml,completely inhibited
"CCCCc1cc(OC)c2ccccc2c1OC(=O)[C@@H](N)C(C)C [L-Valine, 2-n-butyl-4-methoxynaphth-1-yl ester]",inhibition at 1 µg/mL,[6]; 1 microgram/ml,97%
same,inhibition of synthesis of leukotriene,[6]; 10 micrograms/ml,completely inhibited
"CCCCC/C=C\C\C=C/C=C/C=C/[C@@H](SC[C@H](N)C(=O)NCC(=O)O)[C@@H](O)CCCC(=O)O [LTD4, leukotriene D4]",release of mucus from human airways,[7],increase the release of mucus
same,release of mucus from canine tracheas,[8],increase the release of mucus
"COc1ccc2c(c1)c(CC(=O)O)c(C)n2C(=O)c1ccc(Cl)cc1 [indomethacin, reference compound]",block of normal baseline secretion,"[3]; indomethacin 5 mg/kg pretreatment, at least 30 minutes",about 20%
same,block of the effect of arachidonate alone,"[3]; indomethacin 5 mg/kg pretreatment, arachidonate 1.0 mg in the CTA",nicely blocked the effect of arachidonate alone
monohydroxyeicosatetraenoic acid,release of mucus from human airways,[7],release mucus from human airway

# Source: patent US4737519A, “Substituted naphthalenes, indoles, benzofurans, and benzothiophenes as lipoxygenase inhibitors” (The Upjohn Company, priority 1986, dated 1988)
